Reference: US8546389B2 (priority 2010, dated 2013)

Experiments:
[1] = molecular target: 1b (BK) NS5bΔ21 (Hepatitis C virus genotype 1b (isolate BK) (HCV), UniProt P26663); experiment: HCV polymerase inhibition assay, genotype 1b; type: biochemical, HCV genotype 1b (BK); details: 1b (BK) NS5bΔ21, 33P-GTP incorporation; read-out: 1b polymerase IC50 (range class)
Method: HCV polymerase reactions were carried out using a modified method of Howe et al., Antimicrobial Agents and Chemotherapy 2004 48(12): 4813-4821. Reactions contained a final concentration of, 0.5% DMSO, 50 nM, 1b (BK) NS5bΔ21, 20 mM Tris-HCl pH 7.5, 5 mM MgCl2, 5 mM MnCl2, 3 mM DTT, 0.05% BSA, 0.2 U/μL RNasin, 10 μg/mL Poly(rC) template, GTP (at Km) and 0.05 μCi/μL ^33P-GTP in a total reaction volume of 50 μL. Compounds were tested in a three fold dilution series, for example starting from 50 μM. Reactions were initiated with the addition of GTP and terminated after 1 hour with 50 μL ice cold 0.2 M EDTA. Terminated reactions were transferred to DEAE 96-well filter plates, unincorporated nucleotides washed from the filters and 50 μL scintillation fluid added prior to reading on a scintillation counter. Similarly, a genotype 3a (VRL-69) NS5bΔ21 polymerase enzyme assay was conducted using essentially the same method.
The compound concentration that reduced ^33P-GTP incorporation by 50% (IC50) was calculated using non-linear regression.

[2] = tested on: genotype 1b (Con 1) subgenomic replicon cell line; experiment: HCV replicon assay, genotype 1b (Renilla luciferase); type: cell-based, HCV genotype 1b (Con 1); details: Hepatitis C virus; genotype 1b replicon, 72 hours, luciferase; read-out: genotype 1b EC50 (range class)
Method: A genotype 1b (Con 1) subgenomic replicon cell line based on Blight et al., Science 2000 290: 1972-1974, modified to express a Renilla luciferase reporter gene was used to assess antiviral activity of test compounds. Cell cultures were maintained in a sub-confluent state in DMEM with glutamine, 10% heat-inactivated foetal bovine serum (FBS) and G418 (Geneticin®).
For assay, cells were seeded at a density of 7000 cells/well into 96 well tissue culture trays in culture media lacking G418. Compounds were tested in a three fold dilution series, for example starting from 50 uM. After 72 hours incubation at 37° C. and 5% CO2, Renilla luciferase activity was quantified via the Promega Renilla Luciferase or Renilla-Glo™ Luciferase Assay Systems (Promega corporation. The same method was employed for replicon assays using subgenomic genotype 1a and 2a replicon cell lines with a seeding cell density of 5000 cells/well for the 2a cell lines.
The compound concentration that reduced luciferase activity by 50% (EC50) was calculated using non-linear regression.

Chain of 1b (BK) NS5bΔ21 (P26663 2420-2989): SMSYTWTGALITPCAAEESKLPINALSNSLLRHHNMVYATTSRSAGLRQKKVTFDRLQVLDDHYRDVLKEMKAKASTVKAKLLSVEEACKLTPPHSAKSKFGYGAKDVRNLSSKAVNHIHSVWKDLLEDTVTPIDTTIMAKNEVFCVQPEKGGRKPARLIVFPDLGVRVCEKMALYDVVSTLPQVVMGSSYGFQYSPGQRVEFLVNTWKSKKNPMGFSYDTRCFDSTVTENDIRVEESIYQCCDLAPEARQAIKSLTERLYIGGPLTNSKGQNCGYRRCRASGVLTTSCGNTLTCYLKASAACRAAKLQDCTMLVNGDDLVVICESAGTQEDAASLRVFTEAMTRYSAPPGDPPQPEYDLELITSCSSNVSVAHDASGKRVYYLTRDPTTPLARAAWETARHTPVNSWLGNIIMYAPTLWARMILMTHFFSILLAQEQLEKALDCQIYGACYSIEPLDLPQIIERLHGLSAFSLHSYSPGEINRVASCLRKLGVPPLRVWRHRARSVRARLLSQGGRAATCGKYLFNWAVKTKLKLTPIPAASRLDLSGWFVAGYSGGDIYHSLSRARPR

CNC(=O)c1c2cc(C3CC3)c(N(CCCNC(=O)CCC(=O)O)S(C)(=O)=O)cc2nn1-c1ccc(Br)cc1 [Compound 68, 4-[(3-{[2-(4-bromophenyl)-5-cyclopropyl-3-(methylcarbamoyl)-2H-indazol-6-yl](methylsulfonyl)amino}propyl)amino]-4-oxobutanoic acid]
IC50 [1]: < 0.99 µM
EC50 [2]: 10 to 50 µM

CNC(=O)c1c2cc(C3CC3)c(N(CCCN3C(=O)CCC3=O)S(C)(=O)=O)cc2nn1-c1ccc(Br)cc1 [Compound 69, 2-(4-bromophenyl)-5-cyclopropyl-6-{[3-(2,5-dioxopyrrolidin-1-yl)propyl](methylsulfonyl)amino}-N-methyl-2H-indazole-3-carboxamide]
IC50 [1]: < 0.99 µM
EC50 [2]: < 0.99 µM

CNC(=O)c1c2cc(C3CC3)c(N(CCCN3CCNC3=O)S(C)(=O)=O)cc2nn1-c1ccc(Br)cc1 [Compound 70, 2-(4-Bromophenyl)-5-cyclopropyl-N-methyl-6-{(methylsulfonyl)[3-(2-oxoimidazolidin-1-yl)propyl]amino}-2H-indazole-3-carboxamide]
IC50 [1]: < 0.99 µM
EC50 [2]: 1 to 9.99 µM

C=Cc1cc2c(C(=O)NC)n(-c3ccc(F)cc3)nc2cc1N(CC)S(C)(=O)=O [Compound 71, 5-Ethenyl-6-[ethyl(methylsulfonyl)amino]-2-(4-fluorophenyl)-N-methyl-2H-indazole-3-carboxamide]
IC50 [1]: 1 to 9.99 µM
EC50 [2]: 1 to 9.99 µM

CCc1cc2c(C(=O)NC)n(-c3ccc(F)cc3)nc2cc1N(CC)S(C)(=O)=O [Compound 72, 5-ethyl-6-[ethyl(methylsulfonyl)amino]-2-(4-fluorophenyl)-N-methyl-2H-indazole-3-carboxamide]
IC50 [1]: 1 to 9.99 µM
EC50 [2]: 1 to 9.99 µM

CCN(c1cc2nn(-c3ccc(F)cc3)c(C(=O)NC)c2cc1C1=CCCC1)S(C)(=O)=O [Compound 73, 5-(Cyclopent-1-en-1-yl)-6-[ethyl(methylsulfonyl)amino]-2-(4-fluorophenyl)-N-methyl-2H-indazole-3-carboxamide]
IC50 [1]: 10 to 50 µM
EC50 [2]: 1 to 9.99 µM

CCN(c1cc2nn(-c3ccc(F)cc3)c(C(=O)NC)c2cc1C1CCCC1)S(C)(=O)=O [Compound 74, 5-cyclopentyl-6-[ethyl(methylsulfonyl)amino]-2-(4-fluorophenyl)-N-methyl-2H-indazole-3-carboxamide]
IC50 [1]: 10 to 50 µM
EC50 [2]: 1 to 9.99 µM

CCN(c1cc2nn(-c3ccc(F)cc3)c(C(=O)NC)c2cc1C#CCO)S(C)(=O)=O [Compound 75, 6-[Ethyl(methylsulfonyl)amino]-2-(4-fluorophenyl)-5-(3-hydroxyprop-1-yn-1-yl)-N-methyl-2H-indazole-3-carboxamide]
IC50 [1]: 1 to 9.99 µM
EC50 [2]: 10 to 50 µM

CCN(c1cc2nn(-c3ccc(F)cc3)c(C(=O)NC)c2cc1/C=C\CO)S(C)(=O)=O [Compound 76, 6-[ethyl(methylsulfonyl)amino]-2-(4-fluorophenyl)-5[(1Z)-3-hydroxyprop-1-en-1-yl]-N-methyl-2H-indazole-3-carboxamide]
IC50 [1]: 10 to 50 µM
EC50 [2]: 1 to 9.99 µM

C#Cc1cc2c(C(=O)NC)n(-c3ccc(F)cc3)nc2cc1N(CC)S(C)(=O)=O [Compound 77, 6-[Ethyl(methylsulfonyl)amino]-5-ethynyl-2-(4-fluorophenyl)-N-methyl-2H-indazole-3-carboxamide]
IC50 [1]: 10 to 50 µM
EC50 [2]: 1 to 9.99 µM

CCN(c1cc2nn(-c3ccc(F)cc3)c(C(=O)NC)c2cc1OC(F)F)S(C)(=O)=O [Compound 78, 5-(Difluoromethoxy)-6-[ethyl(methylsulfonyl)amino]-2-(4-fluorophenyl)-N-methyl-2H-indazole-3-carboxamide]
IC50 [1]: 10 to 50 µM
EC50 [2]: 1 to 9.99 µM

CNC(=O)c1c2cc(C3CC3)c(N(CCCO)S(C)(=O)=O)cc2nn1-c1ccc(COC(C)C)cc1 [Compound 79, 5-Cyclopropyl-6-[(3-hydroxypropyl)(methylsulfonyl)amino]-N-methyl-2-{4-[(propan-2-yloxy)methyl]phenyl}-2H-indazole-3-carboxamide]
IC50 [1]: 1 to 9.99 µM
EC50 [2]: 1 to 9.99 µM

CNC(=O)c1c2cc(C3CC3)c(-c3c(C)noc3C)cc2nn1-c1ccc(F)cc1 [Compound 83, 5-Cyclopropyl-6-(3,5-dimethyl-1,2-oxazol-4-yl)-2-(4-fluorophenyl)-N-methyl-2H-indazole-3-carboxamide]
IC50 [1]: 10 to 50 µM
EC50 [2]: 1 to 9.99 µM

CCOC(=O)CCCN(c1cc2nn(-c3ccc(Br)cc3)c(C(=O)NC)c2cc1C1CC1)S(C)(=O)=O [Compound 88, Ethyl 4-{[2-(4-bromophenyl)-5-cyclopropyl-3-(methylcarbamoyl)-2H-indazol-6-yl](methylsulfonyl)amino}butanoate]
IC50 [1]: < 0.99 µM
EC50 [2]: < 0.99 µM

CNC(=O)c1c2cc(C3CC3)c(N(CCCC(=O)O)S(C)(=O)=O)cc2nn1-c1ccc(Br)cc1 [Compound 89, 4-{[2-(4-bromophenyl)-5-cyclopropyl-3-(methylcarbamoyl)-2H-indazol-6-yl](methylsulfonyl)amino}butanoic acid]
IC50 [1]: < 0.99 µM
EC50 [2]: 10 to 50 µM

CNC(=O)c1c2cc(C3CC3)c(N(CCC(=O)O)S(C)(=O)=O)cc2nn1-c1ccc(Br)cc1 [Compound 90, N-[2-(4-bromophenyl)-5-cyclopropyl-3-(methylcarbamoyl)-2H-indazol-6-yl]-N-(methylsulfonyl)-beta-alanine]
IC50 [1]: < 0.99 µM
EC50 [2]: 10 to 50 µM

CNC(=O)c1c2cc(C3CC3)c(N(CCC(=O)NC(C)C)S(C)(=O)=O)cc2nn1-c1ccc(Br)cc1 [Compound 91, 2-(4-bromophenyl)-5-cyclopropyl-N-methyl-6-((methylsulfonyl)[3-oxo-3-(propan-2-ylamino)propyl]amino)-2H-indazole-3-carboxamide]
IC50 [1]: 1 to 9.99 µM
EC50 [2]: 1 to 9.99 µM

CCC(C)OC(=O)CCCN(c1cc2nn(-c3ccc(Br)cc3)c(C(=O)NC)c2cc1C1CC1)S(C)(=O)=O (centres unmarked) [Compound 92, butan-2-yl 4-{[2-(4-bromophenyl)-5-cyclopropyl-3-(methylcarbamoyl)-2H-indazol-6-yl](methylsulfonyl)amino}butanoate]
IC50 [1]: < 0.99 µM
EC50 [2]: < 0.99 µM

CNC(=O)c1c2cc(C3CC3)c(N(CCCC(=O)Oc3ccccc3)S(C)(=O)=O)cc2nn1-c1ccc(Br)cc1 [Compound 93, phenyl 4-{[2-(4-bromophenyl)-5-cyclopropyl-3-(methylcarbamoyl)-2H-indazol-6-yl](methylsulfonyl)amino}butanoate]
IC50 [1]: < 0.99 µM
EC50 [2]: 1 to 9.99 µM

CNC(=O)c1c2cc(C3CC3)c(N(CCCC(=O)OCOC(=O)C(C)(C)C)S(C)(=O)=O)cc2nn1-c1ccc(Br)cc1 [Compound 94, [(2,2-dimethylpropanoyl)oxy]methyl 4-{[2-(4-bromophenyl)-5-cyclopropyl-3-(methylcarbamoyl)-2H-indazol-6-yl](methylsulfonyl)amino}butanoate]
IC50 [1]: < 0.99 µM
EC50 [2]: 1 to 9.99 µM

CNC(=O)c1c2cc(C3CC3)c(N(CCC(CO)CO)S(C)(=O)=O)cc2nn1-c1ccc(Br)cc1 [Compound 96, 2-(4-bromophenyl)-5-cyclopropyl-6-{[4-hydroxy-3-(hydroxymethyl)butyl] (methylsulfonyl)amino}-N-methyl-2H-indazole-3-carboxamide]
IC50 [1]: < 0.99 µM
EC50 [2]: < 0.99 µM

CNC(=O)c1c2cc(C3CC3)c(N(CCC3COC(=O)OC3)S(C)(=O)=O)cc2nn1-c1ccc(Br)cc1 [Compound 97, 2-(4-bromophenyl)-5-cyclopropyl-N-methyl-6-{(methylsulfonyl)[2-(2-oxo-1,3-dioxan-5-yl)-ethyl]amino}-2H-indazole-3-carboxamide]
IC50 [1]: < 0.99 µM
EC50 [2]: 1 to 9.99 µM

CNC(=O)c1c2cc(C3CC3)c(N(CCCS(C)(=O)=O)S(C)(=O)=O)cc2nn1-c1ccc(Br)cc1 [Compound 100, 2-(4-bromophenyl)-5-cyclopropyl-N-methyl-6-[methylsulfonyl(3-methylsulfonylpropyl)amino]-2H-indazole-3-carboxamide]
IC50 [1]: < 0.99 µM
EC50 [2]: < 0.99 µM

CNC(=O)c1c2cc(C3CC3)c(N(CCC[S+](C)[O-])S(C)(=O)=O)cc2nn1-c1ccc(Br)cc1 (centres unmarked) [Compound 101, 2-(4-bromophenyl)-5-cyclopropyl-N-methyl-6-[3-methylsulfinylpropyl(methylsulfonyl)amino]-2H-indazole-3-carboxamide]
IC50 [1]: < 0.99 µM
EC50 [2]: 1 to 9.99 µM

CNC(=O)c1c2cc(C3CC3)c(N(CCCS(N)(=O)=O)S(C)(=O)=O)cc2nn1-c1ccc(Br)cc1 [Compound 102, 2-(4-Bromophenyl)-5-cyclopropyl-N-methyl-6-[methylsulfonyl(3-sulfamoylpropyl)amino]-2H-indazole-3-carboxamide]
IC50 [1]: < 0.99 µM
EC50 [2]: 1 to 9.99 µM
